The values below come from paper PMC1892040 (PLoS Medicine, 2007).

Where “and” joins values, the source holds several entries; their conditions need not be identical. Identical values can stand only once. Entries after “also recorded” stand apart in the source; their conditions may differ. Like-named read-outs stand apart in the source and are kept apart here.

One data set deals with T1, Human TrxR (Homo sapiens, UniProt Q16881).
T1 sequence (Q16881 1-499 isoform Q16881-5): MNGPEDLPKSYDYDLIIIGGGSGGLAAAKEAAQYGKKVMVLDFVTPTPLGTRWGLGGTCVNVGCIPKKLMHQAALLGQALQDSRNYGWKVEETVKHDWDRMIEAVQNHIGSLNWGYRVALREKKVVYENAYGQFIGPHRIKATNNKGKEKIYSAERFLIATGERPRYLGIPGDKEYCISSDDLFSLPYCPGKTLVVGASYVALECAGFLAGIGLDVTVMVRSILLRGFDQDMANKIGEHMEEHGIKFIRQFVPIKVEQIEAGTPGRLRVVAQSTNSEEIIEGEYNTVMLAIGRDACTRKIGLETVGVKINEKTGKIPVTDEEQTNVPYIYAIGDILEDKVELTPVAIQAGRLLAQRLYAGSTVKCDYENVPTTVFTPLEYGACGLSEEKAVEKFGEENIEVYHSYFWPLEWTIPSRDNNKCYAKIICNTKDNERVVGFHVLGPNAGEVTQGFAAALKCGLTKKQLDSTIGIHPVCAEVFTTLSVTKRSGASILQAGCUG
Particulars: read-out: IC50 Human TrxR, DTNB/Trx; cited from earlier work.

The next data set has as its target T2, Human GR (Homo sapiens, UniProt P00390).
T2 sequence (P00390 44-522): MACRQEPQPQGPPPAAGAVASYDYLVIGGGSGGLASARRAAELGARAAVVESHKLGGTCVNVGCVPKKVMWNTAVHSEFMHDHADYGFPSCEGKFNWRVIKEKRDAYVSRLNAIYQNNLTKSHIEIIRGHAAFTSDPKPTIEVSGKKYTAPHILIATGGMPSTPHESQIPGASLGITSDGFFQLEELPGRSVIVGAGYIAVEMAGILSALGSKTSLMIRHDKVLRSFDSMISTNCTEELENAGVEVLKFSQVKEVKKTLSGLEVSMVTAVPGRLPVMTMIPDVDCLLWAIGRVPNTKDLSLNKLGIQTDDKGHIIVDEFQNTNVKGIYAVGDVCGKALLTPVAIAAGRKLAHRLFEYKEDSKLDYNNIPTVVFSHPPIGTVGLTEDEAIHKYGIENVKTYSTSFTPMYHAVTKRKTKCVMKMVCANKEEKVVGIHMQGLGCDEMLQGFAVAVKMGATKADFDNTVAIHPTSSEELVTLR
As to conditions: read-out: IC50 Human GR, GSSG; cited from earlier work.

The target in data set [1] is T3, S. mansoni TGR (Schistosoma mansoni, UniProt Q962Y6).
T3 sequence (Q962Y6 1-598): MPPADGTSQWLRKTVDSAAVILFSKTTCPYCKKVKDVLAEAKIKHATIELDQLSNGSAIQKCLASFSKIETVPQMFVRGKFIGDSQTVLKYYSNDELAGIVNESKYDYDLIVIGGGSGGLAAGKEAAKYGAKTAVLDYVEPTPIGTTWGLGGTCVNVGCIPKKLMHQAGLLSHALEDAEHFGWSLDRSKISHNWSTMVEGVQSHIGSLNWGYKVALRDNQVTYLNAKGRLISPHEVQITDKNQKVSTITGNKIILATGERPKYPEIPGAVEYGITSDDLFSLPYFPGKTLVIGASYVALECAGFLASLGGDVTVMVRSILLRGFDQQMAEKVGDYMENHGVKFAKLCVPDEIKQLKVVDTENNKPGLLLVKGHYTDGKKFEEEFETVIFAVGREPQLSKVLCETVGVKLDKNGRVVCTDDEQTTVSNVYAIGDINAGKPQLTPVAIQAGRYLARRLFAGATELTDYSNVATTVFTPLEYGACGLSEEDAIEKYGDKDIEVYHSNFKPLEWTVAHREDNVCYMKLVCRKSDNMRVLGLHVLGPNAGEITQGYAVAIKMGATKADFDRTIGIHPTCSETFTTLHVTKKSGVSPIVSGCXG
The class given is biochemical. On the set-up: The entire TGR ORF plus the SECIS element was subcloned into pET-24a; made in house; host or cells: Escherichia coli BL21(DE3) with pSUABC. Particulars: read-out: IC50 S. mansoni TGR, GSSG (GR activity); 100 μM GSSG, 15 min preincubation with 100 μM NADPH.
Procedure: (§3) Assays were performed at 25 °C in 0.1 M potassium phosphate (pH 7.4), 10 mM EDTA using 100 μM NADPH unless otherwise stated.
(§4) Initial inhibitor screens were conducted in 200 μl volumes in 96 well plates with 50 μM inhibitor, 100 μM NADPH, and 5 nM TGR in 0.1 M potassium phosphate (pH 7.4), 10 mM EDTA with a preincubation step of 15 min. […] All assays were done in triplicate.

Another data set has as its system S. mansoni. In words: Inhibitor studies on infected mice (worm burden). Type of data set: in vivo, Schistosoma mansoni. As to conditions: for Total Worm Burden, Number of Worms, Mean ± SD / Total Worm Burden Reduction: 6 mg/kg twice daily for 9 d; for Total Worm Burden, Number of Worms, Mean ± SD: intraperitoneally; for Total Worm Burden Reduction: versus control, 6 mg/kg. The procedure:
(§1) Mice (14-wk-old females; C57BL/6 in experiment 1, NIH-Swiss in experiment 2) infected with 60 S. mansoni cercariae were injected intraperitoneally with 6 mg/kg of AF twice daily for 9 d, beginning 7 wk post infection. Infected control mice were injected with equal amounts of carrier. Mice were perfused 1 wk after the final dose of AF and worm burdens were determined.

A further data set deals with TGR (Schistosoma mansoni, UniProt Q962Y6). Description: TrxR and GR activities of TGR in homogenates of treated worms. The class given is cell-based. Particulars: after 1 h of treatment with 10 μM AF, compared to control worms. The procedure: (§2) AF was dissolved in DMSO and added to freshly perfused worms in DMEM to 10 μM. Control worms were treated with equal amounts of carrier. Worms were subsequently observed for unpairing, motility, and mortality, and were collected at the indicated time intervals for analysis. Worms were homogenized by sonication in PBS and homogenates were assayed for TrxR and GR activities as described above. […] Each assay was done in triplicate and each experiment was done three times.

A further data set has as its system GSH peroxidase (GPx). Description: GPx activity in homogenates of treated worms. Type of data set: cell-based, Schistosoma mansoni. As to conditions: 10 μM AF.
The subject of the next data set is GSH:GSSG ratio. Description: GSH:GSSG ratio in treated worms. Type of data set: cell-based, Schistosoma mansoni. Particulars: after 6 h of treatment with 10 μM AF. As for the experimental part: as §2
In data set [2] the test system is lactate dehydrogenase (LDH). Description: LDH activity in homogenates of treated worms. Particulars: 10 μM AF. The class given is cell-based, Schistosoma mansoni.
Data set [3] is described as follows: Tolerability of AF dosage in mice. The class given is in vivo. Particulars: 6 mg/kg twice daily for 9 d. As for the experimental part: as §1
Data set [4] addresses T3, S. mansoni TGR. The class given is biochemical. Particulars: read-out: IC50 S. mansoni TGR, DTNB (TrxR activity); 3 mM DTNB, 15 min preincubation with 100 μM NADPH. Details: The entire TGR ORF plus the SECIS element was subcloned into pET-24a; made in house; host or cells: Escherichia coli BL21(DE3) with pSUABC.
Procedure: as §3, §4

For `CC(=O)OC[C@H]1O[C@@H]([S-])[C@H](OC(C)=O)[C@@H](OC(C)=O)[C@@H]1OC(C)=O.CCP(CC)CC.[Au+]` [AF, auranofin], the IC50 at Human TrxR is 20 nM; at Human GR it was 40000 nM; on S. mansoni TGR [1] it was 9 nM; on S. mansoni TGR [4], 7 nM. Further, the “Total Worm Burden, Number of Worms, Mean ± SD” value in the data set on S. mansoni (C57BL/6 mice) came to 12 ± 7.8; in the data set with S. mansoni (NIH-Swiss mice), 8.6 ± 1.7. Besides, the “Total Worm Burden Reduction” value in the data set on S. mansoni (C57BL/6 mice, p < 0.015) is 59% and 59^a %; in the data set on S. mansoni (NIH-Swiss mice, p < 0.001), 63% and 63^b %. In addition, the “Worm burden reductions in infected mice” value with S. mansoni (summary value of abstract) was 60% and ~ 60%. In addition, the “Inhibition of GR activity of TGR in worm homogenates” value on TGR is given as about 100%. The “Inhibition of TrxR activity of TGR in worm homogenates” value on TGR was about 100%. Moreover, the “GPx activity in worm homogenates” value with GSH peroxidase (GPx) is recorded as “no significant deviation from controls; also recorded: not inhibited”. In addition, the “Decrease of GSH:GSSG ratio” value in the data set on GSH:GSSG ratio amounted to 85%. Besides, in [2], the “LDH activity in worm homogenates” value is listed as “no significant deviation from controls”. Moreover, in data set [3], the Tolerability in mice result is “well tolerated”.
